Some test systems named below: DMS-114; DMS-273; KM-20L2; LXFL 529; M19-MEL; SNB-78; XF498; BT-549.
Holding throughout (experiment): NCI-60 cell line screen, 48 h

Each structure is given as a SMILES string.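 A five-concentration, 48-hour dose response in 96-well plates underlies each endpoint, interpolated linearly between surrounding concentrations. GI50 = concentration required for 50% inhibition of growth.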 Active and inactive are the calls of the source. Rule as the data show it: active = GI50 up to about 1.1 µM and inactive = higher. Bounds are passed on as bounds.

As for `CCCCCCCCCCCCCC(=O)OC1C(CO)OC(=O)C1O` (stereo not drawn), the GI50 in the assay on DMS-114, in the assay on DMS-273, with KM-20L2, in the assay with LXFL 529, with M19-MEL and in the assay on SNB-78 was > 100 µM (inactive) in each case. In addition, the GI50 in the assay on XF498 was > 100 µM (inactive).
`COc1cc2c(c(OC)c1OC)C(=O)NCCC2`: the GI50 with DMS-114, in the assay on DMS-273, in the assay on KM-20L2, in the assay on LXFL 529, in the assay on M19-MEL and in the assay with SNB-78 was > 100 µM (inactive) each time. Besides, the GI50 in the assay with XF498 was > 100 µM (inactive).
`Cc1nc2c(n1Cc1ccc(Cl)cc1)C(=O)c1ccccc1C2=O`: the GI50 with DMS-273 is 2.62 µM (inactive); in the assay with KM-20L2 it was 8.05 µM (inactive); with LXFL 529 it was 5.47 µM (inactive); in the assay with M19-MEL it was 11.7 µM (inactive); in the assay on SNB-78, 9.42 µM (inactive); in the assay on XF498, 36.4 µM (inactive).
With `CCc1cccc(C)c1NC(=O)CC1C(=O)Nc2ccccc2[S+]1[O-]` (stereo not drawn), the GI50 in the assay with DMS-273 is 42.2 µM (inactive); in the assay with KM-20L2 it was 30.5 µM (inactive); in the assay with LXFL 529 it was 66.1 µM (inactive); with SNB-78, 45.2 µM (inactive); with XF498, 46.5 µM (inactive).
With `COc1cc([C@H]2c3cc4c(cc3[C@H](NCc3ccc([N+](=O)[O-])cc3)C3COC(=O)[C@H]32)OCO4)cc(OC)c1O` (stereo partly drawn), the GI50 in the assay on DMS-114 is 2.62 µM (inactive); with DMS-273 it was 0.661 µM (active); in the assay with KM-20L2, 2.48 µM (inactive); with LXFL 529 it was 5.07 µM (inactive); with M19-MEL, 3.85 µM (inactive); in the assay on SNB-78, 5.94 µM (inactive). Also, the GI50 in the assay with XF498 was 3.32 µM (inactive).
`O=C(O)C1=C(C(=O)Nc2ccc(NC(=O)C3=C(C(=O)O)C4C=CC3C4)cc2)C2C=CC1C2`: the GI50 with DMS-114, in the assay with DMS-273, in the assay with KM-20L2, in the assay on LXFL 529, with M19-MEL and with SNB-78 was > 100 µM (inactive) throughout. Moreover, in the assay on XF498, the GI50 was > 100 µM (inactive).
Regarding `CC1=C(C(=O)CC(=O)C(=O)NC2C3CC4CC(C3)CC2C4)Sc2ccccc2N1` (stereo not drawn), the GI50 with DMS-114 was > 31.6 µM (inactive); in the assay with DMS-273, > 100 µM (inactive); with KM-20L2, > 100 µM (inactive); with LXFL 529, > 100 µM (inactive); with M19-MEL, > 100 µM (inactive); with SNB-78 it was > 100 µM (inactive). The GI50 with XF498 is > 100 µM (inactive).
Consider `C=C1C(C)C2C(Cc3ccccc3)NC(=O)C23C(OC(C)=O)/C=C/C(C)(O)CC(C)C/C=C/C3C1O` (stereo not drawn), for which the GI50 in the assay on BT-549 is 2.67 µM (inactive); in the assay on DMS-114, 8.57 µM (inactive); in the assay on DMS-273, 6.1 µM (inactive); with KM-20L2, 0.112 µM (active); with M19-MEL, 49.1 µM (inactive); in the assay with SNB-78, 0.0454 µM (active). Also, the GI50 with XF498 was 0.973 µM (active).
For `CCCCOC(=O)NC(=O)c1cn(C2CCCCC2)c(=O)[nH]c1=O`, the GI50 in the assay with DMS-114 was 39.8 µM (inactive); in the assay on DMS-273 it was > 100 µM (inactive); with KM-20L2, 76 µM (inactive); in the assay on LXFL 529, 29 µM (inactive); in the assay on M19-MEL, 71.4 µM (inactive); with SNB-78, 36.6 µM (inactive). In addition, in the assay with XF498, the GI50 was 54.7 µM (inactive).
For the compound `COc1cc(C2c3cc4c(cc3[C@@H](OCCN)[C@H]3COC(=O)C23)OCO4)cc(OC)c1O` (stereo partly drawn), the GI50 with DMS-114 was 0.0295 µM (active); in the assay with KM-20L2, 0.543 µM (active); in the assay on LXFL 529 it was 0.776 µM (active); in the assay with M19-MEL, 0.196 µM (active); with SNB-78 it was 3.52 µM (inactive); in the assay on XF498, < 0.0347 µM (active).
For `CCOC(OC1=C(C#N)CCCC1)C(C)[Se]c1ccccc1` (stereo not drawn), the GI50 with DMS-114 is 4.29 µM (inactive); with DMS-273 it was 16.3 µM (inactive); with KM-20L2 it was 62.7 µM (inactive); in the assay with LXFL 529, 22.7 µM (inactive); in the assay with M19-MEL, 29.2 µM (inactive); in the assay with SNB-78, > 100 µM (inactive). In addition, the GI50 in the assay with XF498 is 23.6 µM (inactive).

These data come from ChEMBL document CHEMBL1201862, “PubChem BioAssay data set” (2004).
